Results: patent US12509474B2, “Inhibitors of complement factors and uses thereof” (Annexon, Inc., priority 2020, dated 2025)
Where a name gives a salt, the structure may show the parent alone.

molecular target: T1, human C1s protein (Homo sapiens, UniProt P09871); assay: C1s enzymatic assay (hydrolysis of YLGR-Rh110-dPro); assay type: biochemical; settings: substrate YLGR-Rh110-dPro 20 μM, 15 min pre-incubation, 60 min RT, fluorescence
T1 construct: A104
T1 sequence (P09871 16-688): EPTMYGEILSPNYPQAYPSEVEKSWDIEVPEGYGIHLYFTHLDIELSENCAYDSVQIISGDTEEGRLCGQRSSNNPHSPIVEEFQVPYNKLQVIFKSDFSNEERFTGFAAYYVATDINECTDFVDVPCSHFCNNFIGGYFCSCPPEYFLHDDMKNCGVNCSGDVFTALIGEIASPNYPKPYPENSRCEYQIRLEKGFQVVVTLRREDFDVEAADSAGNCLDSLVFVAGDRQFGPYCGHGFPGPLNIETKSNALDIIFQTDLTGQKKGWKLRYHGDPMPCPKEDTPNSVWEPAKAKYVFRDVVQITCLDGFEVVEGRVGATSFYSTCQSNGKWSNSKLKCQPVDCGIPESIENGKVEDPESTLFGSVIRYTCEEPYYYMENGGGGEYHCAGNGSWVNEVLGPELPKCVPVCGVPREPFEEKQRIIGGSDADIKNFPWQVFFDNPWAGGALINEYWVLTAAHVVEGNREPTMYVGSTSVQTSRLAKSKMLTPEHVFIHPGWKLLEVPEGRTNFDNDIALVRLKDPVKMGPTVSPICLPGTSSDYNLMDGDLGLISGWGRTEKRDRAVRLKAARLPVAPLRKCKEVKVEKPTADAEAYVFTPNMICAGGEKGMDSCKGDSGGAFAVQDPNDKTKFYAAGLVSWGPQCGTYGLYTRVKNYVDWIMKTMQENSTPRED
Procedure: Compound Testing in the C1s Enzymatic Assay
The enzyme cleaves the substrate with the release of Rh110 which is highly fluorescent. C1s inhibitors prevent the hydrolysis of the substrate thus resulting in a decrease of the signal.
On the day of the experiment 0.1 mg/mL BSA (Sigma, B4287) is added fresh to the buffer. The test item stock solutions are serially diluted 1:3 or 1:4 or 1:5 with DMSO, 11-point curves, in a 384-well compound plate. Nafamostat concentration curve is always included in the assay plate as a reference control.
The high controls are prepared dispensing in 0.25 μL DMSO in column 23, rows AH or AP and low controls with 0.25 μL of 0.1 M Nafamostat. […] The YLGR-Rh110-dPro substrate is prepared as 2× of the final assay concentration of 20 μM. 1/well of 2× enzyme solution is dispensed and pre-incubated for 15 min with the compounds. The enzymatic reaction is then started with 5 μL/well of the 2× substrate solution.

| Molecule | hC1s pIC50 |
| --- | --- |
| 7-(1-hydroxy-3-prop-2-enyl-3,4-dihydro-2,1-benzoxazonin-7-yl)cinnolin-4-amine [Example 148] | 8.64 |

same assay, conditions: substrate YLGR-Rh110-dPro 20 μM, 15 min pre-incubation, 60 min RT, fluorescence, read-out: hC1s pIC50 (converted)

| Molecule | IC50 |
| --- | --- |
| Nc1cnnc2cc(-c3cc(B(O)O)ccc3OCC3CNC(=O)C3)ccc12 (single isomer, unassigned) [Example 155, [3-(4-aminocinnolin-7-yl)-4-[(5-oxopyrrolidin-3-yl)methoxy]phenyl]boronic Acid] | 3.89 nM |
| Nc1cnnc2cc(-c3cc(B(O)O)ccc3OCC3CNC(=O)C3)ccc12 (single isomer, unassigned) [Example 154, [3-(4-aminocinnolin-7-yl)-4-[(5-oxopyrrolidin-3-yl)methoxy]phenyl]boronic Acid] | 1.78 nM |
| Nc1cnnc2cc(-c3cc(B(O)O)ccc3Oc3nccs3)ccc12 [Example 169, [3-(4-aminocinnolin-7-yl)-4-(1,3-thiazol-2-yloxy)phenyl]boronic Acid Formic Acid Salt] | 1.45 nM |
| Nc1cnnc2cc(-c3cc(B(O)O)ccc3C(=O)N3CCCC3)ccc12 [Example 124, [3-(4-aminocinnolin-7-yl)-4-(pyrrolidine-1-carbonyl)phenyl]boronic Acid] | 7.59 nM |
| CC1Cc2ccc(-c3ccc4c(N)cnnc4c3)cc2B(O)O1 (single isomer, unassigned) [Example 95] | 3.55 nM |
| Nc1cnnc2cc(-c3cc(B(O)O)ccc3N3CCOCC3)ccc12 [Example 143, [3-(4-aminocinnolin-7-yl)-4-(morpholin-4-yl)phenyl]boronic Acid Formic Acid Salt] | 57.5 nM |
| Nc1cnnc2cc(-c3cc(B(O)O)ccc3OCC3CCCO3)ccc12 (centres unmarked) [Example 82, [3-(4-aminocinnolin-7-yl)-4-(oxolan-2-ylmethoxy)phenyl]boronic Acid] | 0.575 nM |
| Nc1nncc2cc(-c3cccc(B(O)O)c3)ccc12 [Example 1, [3-(1-aminophthalazine-6-yl)phenyl]boronic Acid] | 1.17 nM |
| Cc1cc2cc(-c3cccc(B(O)O)c3)ccc2c(N)n1 [Example 13, [3-(1-amino-3-methylisoquinolin-6-yl)phenyl]boronic Acid; Trifluoroacetic Acid Salt] | 37.2 nM |
| Cn1nc(C2CC2)c2c(B(O)O)cc(-c3ccc4c(N)cnnc4c3)cc21 [Example 146, [6-(4-aminocinnolin-7-yl)-3-cyclopropyl-1-methyl-1H-indazol-4-yl]boronic Acid] | 5.25 nM |
| Nc1cnnc2cc(-c3cc(B(O)O)ccc3Oc3ccc(F)cc3)ccc12 [Example 167, [3-(4-aminocinnolin-7-yl)-4-(4-fluorophenoxy)phenyl]boronic Acid Formic Acid Salt] | 1.66 nM |
| Nc1cnnc2cc(-c3cc(B(O)O)ccc3OCCC3CCOC3)ccc12 (centres unmarked) [Example 112, [3-(4-aminocinnolin-7-yl)-4-[2-(oxolan-3-yl)ethoxy]phenyl]boronic Acid] | 0.776 nM |
| C[C@@H]1C[C@H](Oc2ccc(B(O)O)cc2-c2ccc3c(N)cnnc3c2)C[C@H](C)O1 [Example 123, [3-(4-aminocinnolin-7-yl)-4-{[(2R,4R,6S)-2,6-dimethyloxan-4-yl]oxy}phenyl]boronic Acid Formic Acid Salt] | 0.851 nM |
| COCCOCCOCCOCCOCCOCCOc1ccc(B(O)O)cc1-c1ccc2c(N)cnnc2c1 [Example 8, [3-(4-aminocinnolin-7-yl)-4-[2-[2-[2-[2-[2-(2-methoxyethoxy)ethoxy]ethoxy]ethoxy]ethoxy]ethoxy]phenyl]boronic Acid] | 3.09 nM |
| Nc1cnnc2cc(-c3cc(B(O)O)c4occc4c3)ccc12 [Example 149, [5-(4-aminocinnolin-7-yl)-1-benzofuran-7-yl]boronic Acid Formic Acid Salt] | 0.603 nM |
| COc1ccc(B(O)O)cc1-c1cnc2cnccc2c1 [Example 139, [4-methoxy-3-(1,7-naphthyridin-3-yl)phenyl]boronic Acid] | > 25100 nM |

Further lines, results first:

| IC50 | Molecule |
| --- | --- |
| 1.05 nM | CC(F)(F)Oc1ccc(B(O)O)cc1-c1ccc2c(N)cnnc2c1 [Example 163, [3-(4-aminocinnolin-7-yl)-4-(1,1-difluoroethoxy)phenyl]boronic Acid Formic Acid Salt] |
| 1.17 nM | Cc1nc2cc(B(O)O)cc(-c3ccc4c(N)cnnc4c3)c2o1 [Example 122, [7-(4-aminocinnolin-7-yl)-2-methyl-1,3-benzoxazol-5-yl]boronic Acid Formic Acid Salt] |
| 0.589 nM | COc1ccc(B(O)O)cc1-c1ccc2c(N)cnnc2c1 [Example 5, [3-(4-aminocinnolin-7-yl)-4-methoxyphenyl]boronic Acid] |
| 617 nM | COc1ccc(B(O)O)cc1-c1ccc2ccnnc2c1 [Example 80, [3-(cinnolin-7-yl)-4-methoxyphenyl]boronic Acid] |
| 0.851 nM | Cc1nnc(N)c2ccc(-c3cc(B(O)O)cc4ccoc34)cc12 [Example 104, [7-(1-amino-4-methylphthalazin-6-yl)-1-benzofuran-5-yl]boronic Acid] |
| 1.51 nM | Cc1nnc(N)c2ccc(-c3cccc(B(O)O)c3)cc12 [Example 4, [3-(1-amino-4-methylphthalazin-6-yl)phenyl]boronic Acid] |
| 0.912 nM | Cc1nnc(N)c2ccc(-c3ccc4c(c3)B(O)OC(C)C4)cc12 (single isomer, unassigned) [Example 73, 6-(1-hydroxy-3-methyl-3,4-dihydro-2,1-benzoxazonin-7-yl)-4-methylphthalazin-1-amine] |
| 3.39 nM | COc1c(-c2ccc3c(N)cnnc3c2)cc(B(O)O)cc1C1CCOCC1 [Example 58, [3-(4-aminocinnolin-7-yl)-4-methoxy-5-(oxan-4-yl)phenyl]boronic Acid] |
| 1.2 nM | Cc1cc(C#N)c(-c2ccc3c(N)nnc(C)c3c2)cc1B(O)O [Example 41, [5-(1-amino-4-methylphthalazin-6-yl)-4-cyano-2-methylphenyl]boronic Acid] |
| 1.32 nM | Cc1nnc(N)c2ccc(-c3cc(B(O)O)ccc3C(F)(F)F)cc12 [Example 39, [3-(1-amino-4-methylphthalazin-6-yl)-4-(trifluoromethyl)phenyl]boronic Acid Formic Acid Salt] |
| 11200 nM | Cc1nnc(N)c2ccc(-c3cc(B(O)O)ccc3NC(=O)c3cnsc3)cc12 [Example 87, [3-(1-amino-4-methylphthalazin-6-yl)-4-(1,2-thiazole-4-amido)phenyl]boronic Acid] |
| 1.38 nM | COc1c(C)cc(B(O)O)cc1-c1ccc2c(N)nnc(C)c2c1 [Example 42, [3-(1-amino-4-methylphthalazin-6-yl)-4-methoxy-5-methylphenyl]boronic Acid Formic Acid Salt] |
| 4.79 nM | COCCOCCOCCOCCOCCOCCOc1ccc(B(O)O)cc1-c1ccc2c(N)nnc(C)c2c1 [Example 16, [3-(1-amino-4-methylphthalazin-6-yl)-4-[2-[2-[2-[2-[2-(2-methoxyethoxy)ethoxy]ethoxy]ethoxy]ethoxy]ethoxy]phenyl]boronic Acid] |
| 0.646 nM | Cc1nc2c(-c3ccc4c(N)cnnc4c3)cc(B(O)O)cc2o1 [Example 119, [4-(4-aminocinnolin-7-yl)-2-methyl-1,3-benzoxazol-6-yl]boronic Acid Formic Acid Salt] |
| 2.69 nM | COc1cc(C(F)F)c(B(O)O)cc1-c1ccc2c(N)nnc(C)c2c1 [Example 35, [5-(1-amino-4-methylphthalazin-6-yl)-2-(difluoromethyl)-4-methoxyphenyl]boronic Acid] |
